Results reported in the supplement of paper PMC4862054.

Legend:
Details in all cases: incubation time: 72 h
[1] = test system: MDA-MB-231; test: normalised response (% of control), CellTox Green; higher = less cell death (100 = DMSO, 0 = benzethonium chloride kill control)
How it was run: (§1)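 The table gives the normalised signal for a single concentration in each entry. Breast cancer cell lines were seeded (20 µl suspension) into 384-well plates holding compound at 5 concentrations in 10-fold steps over a compound-specific 10,000-fold range and incubated 72 h, then read for CellTox Green fluorescence (485/520 nm) and CellTiter-Glo luminescence. Normalisation on each plate used 0.1 % DMSO (100) and a positive kill control (0).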

[2] = test system: Hs578T; test: as above
How it was run: as §1

[3] = test system: BT-474; test: as above
How it was run: as §1

[4] = test system: MDA-MB-436; test: as above
How it was run: as §1

[5] = test system: DU-4475; test: as above
How it was run: as §1

[6] = test system: HCC1599; test: as above
How it was run: as §1

[7] = test system: MFM-223; test: as above
How it was run: as §1

[8] = test system: MDA-MB-468; test: as above
How it was run: as §1

[9] = test system: HCC1937; test: as above
How it was run: as §1

[10] = test system: CAL-148; test: as above
How it was run: as §1

[11] = test system: CAL-51; test: as above
How it was run: as §1

[12] = test system: MDA-MB-453; test: as above
How it was run: as §1

[13] = test system: BT-549; test: as above
How it was run: as §1

[14] = test system: HDQ-P1; test: as above
How it was run: as §1

[15] = test system: MCF-10A; test: as above
How it was run: as §1

[16] = test system: CAL-120; test: as above
How it was run: as §1

[17] = test system: HCC1143; test: as above
How it was run: as §1

[18] = test system: CAL-85-1; test: as above
How it was run: as §1

[19] = test system: MDA-MB-231; test: normalised response (% of control), CellTiter-Glo; higher = more viable cells (100 = DMSO, 0 = benzethonium chloride kill control)
Description: (§2)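 DSRT, 72 h incubation, CellTox Green / CellTiter-Glo readout. Signal is normalised to DMSO and benzethonium chloride controls. Value is the normalised response at dose 3.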

[20] = test system: SK-BR-3; test: as above
Description: as §2

[21] = test system: Hs578T; test: as above
Description: as §2

[22] = test system: BT-474; test: as above
Description: as §2

[23] = test system: MDA-MB-436; test: as above
Description: as §2

[24] = test system: DU-4475; test: as above
Description: as §2

[25] = test system: HCC1599; test: as above
Description: as §2

[26] = test system: MFM-223; test: as above
Description: as §2

[27] = test system: MDA-MB-468; test: as above
Description: as §2

[28] = test system: HCC1937; test: as above
Description: as §2

[29] = test system: CAL-148; test: as above
Description: as §2

[30] = test system: CAL-51; test: as above
Description: as §2

[31] = test system: MDA-MB-453; test: as above
Description: as §2

[32] = test system: BT-549; test: as above
Description: as §2

[33] = test system: HDQ-P1; test: as above
Description: as §2

[34] = test system: MCF-10A; test: as above
Description: as §2

[35] = test system: CAL-120; test: as above
Description: as §2

[36] = test system: HCC1143; test: as above
Description: as §2

[37] = test system: CAL-85-1; test: as above
Description: as §2

Row | SMILES | normalised response [1] | normalised response [2] | normalised response [3] | normalised response [4] | normalised response [5] | normalised response [6] | normalised response [7] | normalised response [8] | normalised response [9] | normalised response [10] | normalised response [11] | normalised response [12] | normalised response [13] | normalised response [14] | normalised response [15] | normalised response [16] | normalised response [17] | normalised response [18] | normalised response [19] | normalised response [20] | normalised response [21] | normalised response [22] | normalised response [23] | normalised response [24] | normalised response [25] | normalised response [26] | normalised response [27] | normalised response [28] | normalised response [29] | normalised response [30] | normalised response [31] | normalised response [32] | normalised response [33] | normalised response [34] | normalised response [35] | normalised response [36] | normalised response [37]
1 | N#Cc1ccc(COC[C@H]2O[C@@H](n3c(NCc4ccc(Cl)c(Cl)c4)nc4c(N)ncnc43)[C@H](O)[C@@H]2O)cc1 (100 nM) | 86.9% | 114% | 100% | 96% | 106% | 115% | 108% | 130% | 60.8% | 104% | 114% | 110% | 99.3% | 85.9% | 97.2% | 99.7% | 108% | 101% | 111% | 104% | 95.2% | 98.6% | 110% | 103% | 98.3% | 110% | 100% | 95.3% | 104% | 97.2% | 95.7% | 103% | 101% | 102% | 108% | 103% | 104%
2 | COc1cc(O)c2c(c1)/C=C/C[C@H](O)[C@H](O)C(=O)/C=C\C[C@H](C)OC2=O [(5Z)-7-Oxozeaenol] (100 nM) | 109% | 79.4% | 104% | 104% | 96.9% | 108% | 105% | 107% | 105% | – | 109% | 102% | 91.1% | 85.9% | – | 104% | 89.1% | – | 104% | 108% | 98.9% | 95.4% | 104% | 76.1% | 91.2% | 103% | 92.9% | 92.4% | 101% | 103% | 108% | 76.2% | 84.1% | 84.8% | 101% | 99% | 88.5%
3 | COc1cc(OC2CCN(C)CC2)ccc1Nc1ncc2c(n1)n(C1CCCC1)c(=O)n2C [AZ 3146] (100 nM) | 92.5% | 99.1% | 98.3% | 77.7% | 99.8% | 96.6% | 100% | – | 96.3% | 89.9% | 111% | 104% | 111% | 96.2% | – | 96.9% | 96.7% | 107% | 99.1% | 98.1% | 94.1% | 104% | 104% | 99.9% | 98.3% | 99.2% | 101% | 96.2% | 99.2% | 115% | 111% | 108% | 98.7% | 96.7% | 99.9% | 98.8% | 102%
4 | CNC(=O)c1cccc(-c2ccc3c(N4CCOC[C@@H]4C)nc(N4CCOC[C@@H]4C)nc3n2)c1 [AZD2014] (100 nM) | 121% | 107% | 102% | 118% | 103% | 93% | 103% | – | – | 83.9% | 49.6% | 98.7% | 101% | 106% | 51.3% | 101% | 105% | 104% | 86.9% | 64.7% | 93.6% | 87.1% | 82% | 97.1% | 119% | 75.1% | 94.7% | 80.8% | 85.6% | 69.4% | 80.8% | 73.9% | 70.5% | 97.3% | 79.4% | 92.3% | 87.6%
5 | O=C(/C=C/c1cccc(S(=O)(=O)Nc2ccccc2)c1)NO [Belinostat] (100 nM) | 76.3% | 103% | 96.7% | 93.2% | 99.4% | 104% | 84.1% | 131% | 89.8% | 101% | 83.8% | 100% | 100% | 104% | – | 99.2% | 95.4% | 94.8% | 85.5% | 82.7% | 95% | 95% | 83.6% | 86.4% | 92.3% | 85.6% | 83.6% | 83.9% | 79.8% | 63.4% | 62.3% | 99.3% | 83.7% | 81.3% | 87.5% | 89.1% | 85.6%
6 | Cc1ccc(NC(=O)c2ccc(CN3CCN(C)CC3)cc2)cc1Nc1nc(-c2cccnc2)cs1 [Masitinib] (100 nM) | 91.5% | 106% | 95.3% | 73.4% | 99.3% | 101% | 91.6% | 116% | – | 95.1% | 104% | 103% | 91% | 87.1% | 68.2% | 98.9% | 105% | 99.3% | 111% | 99% | 102% | 101% | 107% | 105% | 93.8% | 106% | 99.8% | 103% | 106% | 83.5% | 106% | 107% | 109% | 91.6% | 97.7% | 102% | 101%
7 | COC(=O)c1ccc2c(c1)NC(=O)/C2=C(\Nc1ccc(N(C)C(=O)CN2CCN(C)CC2)cc1)c1ccccc1 [Nintedanib] (100 nM) | 92.7% | – | 102% | 93% | 103% | 95.1% | 98.9% | 82.3% | 108% | 102% | 109% | 101% | 101% | 83.3% | 102% | 100% | 106% | 98.1% | 105% | 98.3% | 103% | 96.8% | 102% | 100% | 114% | 95.8% | 92.2% | 94.9% | 106% | 103% | 109% | 108% | 95% | 93.4% | 98.7% | 101% | 98.7%
8 | S=P(N1CC1)(N1CC1)N1CC1 [Thio-TEPA] (500 nM) | 105% | 88.8% | 94.3% | 85.2% | 101% | 97.2% | 100% | 69% | – | 102% | 113% | 102% | 108% | 92.6% | – | 97% | 101% | 107% | 98.8% | 110% | 101% | 95% | 94.8% | 104% | 89% | 98.7% | 101% | 95.4% | 95.6% | 108% | 116% | 102% | 102% | 106% | 96.1% | 97.5% | 103%
9 | CN(C)CCOc1ccc(/C(=C(/CCCl)c2ccccc2)c2ccccc2)cc1 [Toremifene] (100 nM) | 55.6% | 99.7% | 101% | – | 102% | 99.1% | 92.6% | 127% | – | 84.1% | 110% | 106% | 92.8% | 74.3% | 71.6% | 102% | 70.6% | 98.3% | 105% | 102% | 104% | 102% | 100% | 104% | 102% | 103% | 99.1% | 99.7% | 109% | 100% | 107% | 101% | 98.2% | 103% | 105% | 103% | 94.6%
